# Target: T1, c-Met kinase (Homo sapiens, UniProt P08581)
# T1 construct: c-Met kinase domain recombinant protein diluted with 49 μL of the reaction buffer was added
# Assay: Inhibitory effect on c-Met kinase activity at molecular level (ELISA);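 note: recombinant c-Met kinase domain with 5 µM ATP, 1 h at 37 °C, substrate phosphorylation detected by anti-phosphotyrosine PY99 ELISA at 490 nm versus DMSO negative control, ATP-free wells as blank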
# Format: biochemical
# Conditions: not given
# T1 sequence (P08581 1078-1345 limits assumed): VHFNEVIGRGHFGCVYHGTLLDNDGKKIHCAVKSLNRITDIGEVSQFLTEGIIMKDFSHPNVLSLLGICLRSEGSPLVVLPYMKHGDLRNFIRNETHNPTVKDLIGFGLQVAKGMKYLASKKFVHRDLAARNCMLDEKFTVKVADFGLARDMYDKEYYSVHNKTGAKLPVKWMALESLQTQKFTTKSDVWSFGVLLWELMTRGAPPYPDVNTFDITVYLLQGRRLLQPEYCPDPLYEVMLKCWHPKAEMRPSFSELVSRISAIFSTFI
row,IC50 [nM],SMILES
1,1000 to 10000,"O=C(Nc1ccc(F)cc1)C1(C(=O)Nc2ccc(Oc3ccnc4cc(Cl)ncc34)c(F)c2)CC1 [Compound 1S, N-(4-((7-chloro-1,6-naphthyridin-4-yl)oxy)-3-fluorophenyl)-N-(4-fluorophenyl) cyclopropyl-1,1-dicarboxamide]"
2,1000 to 10000,"Nc1ccc(Oc2ccnc3c(Br)c(OCCN4CCOCC4)ncc23)c(F)c1 [Compound 4S, 4-((8-bromo-7-(2-morpholinoethoxy)-1,6-naphthyridin-4-yl)oxy)-3-fluoroaniline]"
3,100 to 1000,Nc1ccc(Oc2ccnc3cc(OCCN4CCOCC4)ncc23)c(F)c1 [Compound 5S]
4,10 to 100,"O=C(Nc1ccc(F)cc1)C1(C(=O)Nc2ccc(Oc3ccnc4c(Br)c(OCCN5CCOCC5)ncc34)c(F)c2)CC1 [Compound 6S, N-(4-((8-bromo-7-(2-morpholinoethoxy)-1,6-naphthyridin-4-yl)oxy)-3-fluorophenyl)-N-(4-fluorophenyl) cyclopropyl-1,1-dicarboxamide]"
5,10 to 100,"CN1CCN(CCOc2ncc3c(Oc4ccc(NC(=O)C5(C(=O)Nc6ccc(F)cc6)CC5)cc4F)ccnc3c2Br)CC1 [Compound 10S, N-(4-((8-bromo-7-(2-(4-methylpiperazin-1-yl)ethoxy)-1,6-naphthyridin-4-yl)oxy)-3-fluorophenyl)-N-(4-fluorophenyl) cyclopropyl-1,1-dicarboxamide]"
6,100 to 1000,"CN(C(=O)C1(C(=O)Nc2ccc(Oc3ccnc4cc(OCCN5CCOCC5)ncc34)c(F)c2)CC1)c1ccc(F)cc1 [Compound 14S, N-(3-fluoro-4-((7-(2-morpholinoethoxy)-1,6-naphthyridin-4-yl)oxy)phenyl)-N-(4-fluorophenyl)-N-methylcyclopropyl-1,1-dicarboxamide]"
7,10 to 100,"O=C(Nc1ccc(F)cc1)c1cccn(-c2ccc(Oc3ccnc4cc(OCCN5CCOCC5)ncc34)c(F)c2)c1=O [Compound 16S, 1-(3-fluoro-4-((7-(2-morpholinoethoxy)-1,6-naphthyridin-4-yl)oxy)phenyl)-N-(4-fluorophenyl)-2-oxo-1,2-dihydropyridine-3-carboxamide]"
8,1 to 10,"COC(=O)c1cccn(-c2ccc(Oc3ccnc4cc(OCCN5CCOCC5)ncc34)c(F)c2)c1=O [Compound 17S, methyl 1-(3-fluoro-4-((7-(2-morpholinoethoxy)-1,6-naphthyridin-4-yl)oxy)phenyl)-2-oxo-1,2-dihydropyridine-3-carboxylate]"
9,100 to 1000,"O=C(Cc1ccccc1)Nc1ccc(Oc2ccnc3c(Br)c(OCCN4CCOCC4)ncc23)c(F)c1 [Compound 18S, N-(4-((8-bromo-7-(2-morpholinoethoxy)-1,6-naphthyridin-4-yl)oxy)-3-fluorophenyl)-2-phenylacetamide]"
10,10 to 100,"O=C(Nc1ccc(Oc2ccnc3c(Br)c(OCCN4CCOCC4)ncc23)c(F)c1)c1c[nH]cc(-c2ccccc2)c1=O [Compound 19S, N-(4-((8-bromo-7-(2-morpholinoethoxy)-1,6-naphthyridin-4-yl)oxy)-3-fluorophenyl)-4-oxo-5-phenyl-1,4-dihydropyridine-3-carboxamide]"
11,10 to 100,"O=C(Nc1ccc(Oc2ccnc3c(Br)c(OCCN4CCOCC4)ncc23)c(F)c1)c1c[nH]cc(-c2ccc(F)cc2)c1=O [Compound 21S, N-(4-((8-bromo-7-(2-morpholinoethoxy)-1,6-naphthyridin-4-yl)oxy)-3-fluorophenyl)-5-(4-fluorophenyl)-4-oxo-1,4-dihydropyridine-3-carboxamide]"
12,10 to 100,"O=C(Nc1ccc(F)cc1)C1(C(=O)Nc2ccc(Oc3ccnc4cc(N5CCOCC5)ncc34)c(F)c2)CC1 [Compound 27S, N-(3-fluoro-4-((7-morpholino-1,6-naphthyridin-4-yl)oxy)phenyl)-N-(4-fluorophenyl)cyclopropyl-1,1-dicarboxamide]"
13,10 to 100,"O=C(Nc1ccc(F)cc1)C1(C(=O)Nc2ccc(Oc3ccnc4cc(N5CCC(N6CCOCC6)CC5)ncc34)c(F)c2)CC1 [Compound 28S, N-(3-fluoro-4-((7-(4-morpholinopiperidin-1-yl)--naphthyridin-4-yl)oxy)phenyl)-N-(4-fluorophenyl)cyclopropyl-1,1-dicarboxamide]"
14,10 to 100,"C[C@H]1COCCN1CCOc1cc2nccc(Oc3ccc(NC(=O)C4(C(=O)Nc5ccc(F)cc5)CC4)cc3F)c2cn1 [Compound 29S, (S)-N-(3-fluoro-4-((7-(2-(3-methylmorpholino)ethoxy)-naphthyridin-4-yl)oxy)phenyl)-N-(4-fluorophenyl) cyclopropyl-1,1-dicarboxamide]"
15,10 to 100,"C[C@@H]1COCCN1CCOc1cc2nccc(Oc3ccc(NC(=O)C4(C(=O)Nc5ccc(F)cc5)CC4)cc3F)c2cn1 [Compound 30S, (R)-N-(3-fluoro-4-((7-(2-(3-methylmorpholino)ethoxy)-naphthyridin-4-yl)oxy)phenyl)-N-(4-fluorophenyl) cyclopropyl-1,1-dicarboxamide]"
16,10 to 100,"O=C(Nc1ccc(F)cc1)C1(C(=O)Nc2ccc(Oc3ccnc4cc(OCCn5ccnc5)ncc34)c(F)c2)CC1 [Compound 31S, N-(4-((7-(2-(1H-imidazol-1-yl)ethoxy)-naphthyridin-4-yl)oxy)-3-fluorophenyl)-N-(4-fluorophenyl)cyclopropyl-1,1-dicarboxamide]"
17,10 to 100,"O=C(Nc1ccc(F)cc1)C1(C(=O)Nc2ccc(Oc3ccnc4cc(N5CCN(Cc6ccccc6)CC5)ncc34)c(F)c2)CC1 [Compound 32S, N-(4-((7-(4-benzylpiperazin-1-yl)-naphthyridin-4-yl)oxy)-3-fluorophenyl)-N-(4-fluorophenyl)cyclopropyl-1,1-dicarboxamide]"
18,100 to 1000,"O=C(Nc1ccc(F)cc1)C1(C(=O)Nc2ccc(Oc3ccnc4[nH]c(=O)cnc34)c(F)c2)CC1 [Compound 33S, N-(3-fluoro-4-((3-oxo-3,4-dihydropyrido [2,3-b]pyrazin-8-yl)oxy)phenyl)-N-(4-fluorophenyl)cyclopropyl-1,1-dicarboxamide]"
19,100 to 1000,"O=C(Nc1ccc(F)cc1)C1(C(=O)Nc2ccc(Oc3ccnc4ncc(=O)[nH]c34)c(F)c2)CC1 [Compound 34S, N-(3-fluoro-4-((2-oxo-1,2-dihydropyrido [2,3-b]pyrazin-8-yl)oxy)phenyl)-N-(4-fluorophenyl)cyclopropyl-1,1-dicarboxamide]"
20,10 to 100,"CCN1CCC(Nc2cc3nccc(Oc4ccc(NC(=O)c5ccnn(-c6ccc(F)cc6)c5=O)cc4F)c3cn2)C(F)C1 (centres unmarked) [Compound 35S, N-(4-((7-((1-ethyl-3-fluoropiperidin-4-yl)amino)-1,6-naphthyridin-4-yl)oxy)-3-fluorophenyl)-2-(4-fluorophenyl)-3-oxo-2,3-dihydropyridazine-4-carboxamide]"
21,10 to 100,"O=C(Nc1ccc(F)cc1)C1(C(=O)Nc2ccc(Oc3ccnc4cc(-c5ccc([N+](=O)[O-])cc5)ncc34)c(F)c2)CC1 [Compound 48S, N-(3-fluoro-4-((7-(4-nitrophenyl)-1,6-naphthyridin-4-yl)oxy)phenyl)-N-(4-fluorophenyl)cyclopropyl-1,1-dicarboxamide]"
22,10 to 100,"O=C(Nc1ccc(F)cc1)C1(C(=O)Nc2ccc(Oc3ccnc4cc(-c5ccc(N6CCOCC6)cc5)ncc34)c(F)c2)CC1 [Compound 50S, N-(3-fluoro-4-((7-(4-morpholinophenyl)-1,6-naphthyridin-4-yl)oxy)phenyl)-N-(4-fluorophenyl)cyclopropyl-1,1-dicarboxamide]"
23,1 to 10,O=C(Nc1ccc(F)cc1)C1(C(=O)Nc2ccc(Oc3ccnc4cc(-c5cnoc5)ncc34)c(F)c2)CC1 [Compound 51S]
24,100 to 1000,O=C(Nc1ccc(F)cc1)C1(C(=O)Nc2ccc(Oc3ccnc4cc(-c5ccsn5)ncc34)c(F)c2)CC1 [Compound 52S]
25,10 to 100,"Cn1cc(-c2cc3nccc(Oc4ccc(NC(=O)c5cccn(-c6ccc(F)cc6)c5=O)cc4F)c3cn2)cn1 [Compound 53S, N-(3-fluoro-4-((7-(1-methyl-1H-pyrazol-4-yl)-1,6-naphthyridin-4-yl)oxy)phenyl)-1-(4-fluorophenyl)-2-oxo-1,2-dihydropyridine-3-carboxamide]"
26,10 to 100,"O=C(Nc1ccc(F)cc1)C1(C(=O)Nc2ccc(Oc3ccnc4nc(OCCCN5CCOCC5)cnc34)c(F)c2)CC1 [Compound 61S, N-(3-fluoro-4-((3-(3-morpholinopropoxy)pyrido[2,3-b]pyrazin-8-yl)oxy)phenyl)-N-(4-fluorophenyl)cyclopropyl-1,1-dicarboxamide]"

row,SMILES,IC50 [nM]
1,"O=C(COc1cc2nccc(Oc3ccc(NC(=O)C4(C(=O)Nc5ccc(F)cc5)CC4)cc3F)c2cn1)N1CCOCC1 [Compound 36S, N-(3-fluoro-4-((7-(2-morpholino-2-acetoxy)-1,6-naphthyridin-4-yl)oxy)phenyl)-N-(4-fluorophenyl)cyclopropyl-1,1-dicarboxamide]",10 to 100

# Test system: EBC-1 cells
# Assay: Inhibition of c-Met-mediated EBC-1 cell proliferation (SRB staining)
# Format: cell-based
# Conditions: Homo sapiens, 72 hours treatment
# Protocol: The inhibitory effect of the compounds on the growth of non-small cell cancer EBC-1 cell (a cell line in which Met is continually activated due to the amplification of MET gene, and is a Met-dependent tumor cell line) was measured by sulforhodamine B (SRB) staining assay. A certain amount of EBC-1 cells in their logarithmic growth phase were seeded in 96-well plates at 90 μL per well and cultured overnight, then 10 μL of different concentrations of compounds or solvent control were added thereto, three wells for each concentration. After treated by the compound for 72 hours, the adherent cells were removed of culture medium and fixed with 10% (w/v) trichloroacetic acid (100 μL/well) at 4° C. for 1 hr followed by rinsing with distilled water five times. After drying at room temperature, 100 μL of SRB solution (dissolved in 1% glacial acetic acid at 4 mg/mL) was added to each well to incubate and stain the cells for 15 min at room temperature, then unbound SRB was washed off with 1% glacial acetic acid for five times. After drying at room temperature, 100 μL of 10 mM Tris solution was added to each well. The optical density (OD value) at 515 nm was read on a VERSMax microplate reader. […] The experiment was repeated twice. The IC50 data was calculated as a range based on the test results of concentrations set in the initial screening test.
row,SMILES,IC50 [nM]
1,"O=C(Nc1ccc(F)cc1)C1(C(=O)Nc2ccc(Oc3ccnc4cc(Cl)ncc34)c(F)c2)CC1 [Compound 1S, N-(4-((7-chloro-1,6-naphthyridin-4-yl)oxy)-3-fluorophenyl)-N-(4-fluorophenyl) cyclopropyl-1,1-dicarboxamide]",100 to 1000
2,"CN1CCN(CCOc2cnc3nccc(Oc4ccc(NC(=O)C5(C(=O)Nc6ccc(F)cc6)CC5)cc4F)c3n2)CC1 [Compound 66S, N-(3-fluoro-4-((2-(2-(4-methylpiperazin-1-yl)ethoxy)pyrido[2,3-b]pyrazin-8-yl)oxy)phenyl)-N-(4-fluorophenyl) cyclopropyl-1,1-dicarboxamide]",1000 to 10000

# Source: patent US10710996B2, “Pyrido-azaheterecydic compound and preparation method and use thereof” (SHANGHAI INSTITUTE OF MATERIA MEDICA, CHINESE ACADEMY OF …, priority 2015, dated 2020)
